Source: ChEMBL document CHEMBL4765292, “Flexible diaminodihydrotriazine inhibitors of Plasmodium falciparum dihydrofolate reductase: Binding strengths, modes of binding and their antimalarial activities” (Eur J Med Chem, 2020)
pIC50, pKi: −log10 of the molar value.

How the values were obtained:
[1] = Inhibition of Plasmodium falciparum DHFR expressed in Escherichia coli BL21 using DHF as substrate by spectrophotometric analysis
[2] = Inhibition of Plasmodium falciparum DHFR A16V/S108T mutant expressed in Escherichia coli BL21 using DHF as substrate by spectrophotometric analysis
[3] = Inhibition of Plasmodium falciparum DHFR […] mutant expressed in Escherichia coli BL21 using DHF as substrate by spectrophotometric analysis
[4] = Inhibition of Plasmodium falciparum DHFR C59R/S108N/I164L mutant expressed in Escherichia coli BL21 using DHF as substrate by spectrophotometric analysis
[5] = Inhibition of Plasmodium falciparum DHFR N51I/C59R/S108N/I164L mutant expressed in Escherichia coli BL21 using DHF as substrate by spectrophotometric analysis
Plasmodium falciparum [6] = assay: Antimalarial activity against Plasmodium falciparum TM4/8.2 infected in human erythrocytes assessed as reduction in [3H]-hypoxanthine incorporation pretreated for 20 hrs followed by [3H]-hypoxanthine addition measured after 20 hrs by radioactivity method; format: functional, organism-based
Plasmodium falciparum [7] = assay: Antimalarial activity against Plasmodium falciparum T9/94 RC17 harboring DHFR A16V/S108T mutant infected in human erythrocytes assessed as reduction in [3H]-hypoxanthine incorporation pretreated for 20 hrs followed by [3H]-hypoxanthine addition measured after 20 hrs by radioactivity method; format: functional, organism-based; conditions: T9/94 RC17, Erythrocyte
Plasmodium falciparum [8] = assay: Antimalarial activity against Plasmodium falciparum K1CB1 harboring DHFR […] mutant infected in human erythrocytes assessed as reduction in [3H]-hypoxanthine incorporation pretreated for 20 hrs followed by [3H]-hypoxanthine addition measured after 20 hrs by radioactivity method; format: functional, organism-based; conditions: K1CB1, Erythrocyte
Plasmodium falciparum [9] = assay: Antimalarial activity against Plasmodium falciparum W2 harboring DHFR N51I/C59R/S108N mutant infected in human erythrocytes assessed as reduction in [3H]-hypoxanthine incorporation pretreated for 20 hrs followed by [3H]-hypoxanthine addition measured after 20 hrs by radioactivity method; format: functional, organism-based; conditions: W2, Erythrocyte
Plasmodium falciparum [10] = assay: Antimalarial activity against Plasmodium falciparum CsI-2 harboring DHFR C59R/S108N/I164L mutant infected in human erythrocytes assessed as reduction in [3H]-hypoxanthine incorporation pretreated for 20 hrs followed by [3H]-hypoxanthine addition measured after 20 hrs by radioactivity method; format: functional, organism-based; conditions: CsI-2, Erythrocyte
Plasmodium falciparum [11] = assay: Antimalarial activity against Plasmodium falciparum V1/S harboring DHFR N51I/C59R/S108N/I164L mutant infected in human erythrocytes assessed as reduction in [3H]-hypoxanthine incorporation pretreated for 20 hrs followed by [3H]-hypoxanthine addition measured after 20 hrs by radioactivity method; format: functional, organism-based; conditions: Erythrocyte
[12] = system: DHFR (human against Plasmodium falciparum DHFR); assay: Selectivity index, ratio of Ki for human DHFR expressed in Escherichia coli BL21 to Ki for Plasmodium falciparum DHFR expressed in Escherichia coli BL21; format: toxicity; conditions: read-out: Ratio Ki
[13] = system: DHFR (human against Plasmodium falciparum DHFR double mutant); assay: Selectivity index, ratio of Ki for human DHFR expressed in Escherichia coli BL21 to Ki for Plasmodium falciparum DHFR double mutant expressed in Escherichia coli BL21; format: toxicity; conditions: read-out: Ratio Ki
[14] = system: DHFR (human against Plasmodium falciparum DHFR N51I/C59R/S108N/I164L mutant); assay: Selectivity index, ratio of Ki for human DHFR expressed in Escherichia coli BL21 to Ki for Plasmodium falciparum DHFR N51I/C59R/S108N/I164L mutant expressed in Escherichia coli BL21; format: toxicity; conditions: read-out: Ratio Ki
Vero = assay: Cytotoxicity against African green monkey Vero cells assessed as reduction in cell viability incubated for 72 hrs by SRB assay; format: cell-based; conditions: Chlorocebus sabaeus
[15] = Therapeutic index, ratio of IC50 for African green monkey Vero cells to IC50 for Plasmodium falciparum TM4/8.2; format: toxicity; conditions: against Plasmodium falciparum TM4/8.2, read-out: Ratio IC50
[16] = Therapeutic index, ratio of IC50 for African green monkey Vero cells to IC50 for Plasmodium falciparum K1CB1 harboring DHFR […] mutant; format: toxicity; conditions: read-out: Ratio IC50
[17] = Therapeutic index, ratio of IC50 for African green monkey Vero cells to IC50 for Plasmodium falciparum V1/S harboring DHFR N51I/C59R/S108N/I164L mutant; format: toxicity; conditions: read-out: Ratio IC50
[18] = Inhibition of Plasmodium falciparum DHFR N51I/C59R/S108N mutant expressed in Escherichia coli BL21 using DHF as substrate by spectrophotometric analysis

| SMILES | pKi [1] | pKi [2] | pKi [3] | pKi [4] | pKi [5] | pIC50 (Plasmodium falciparum [6]) | pIC50 (Plasmodium falciparum [7]) | pIC50 (Plasmodium falciparum [8]) | pIC50 (Plasmodium falciparum [9]) | pIC50 (Plasmodium falciparum [10]) | pIC50 (Plasmodium falciparum [11]) | selectivity ratio [12] | selectivity ratio [13] | selectivity ratio [14] | pIC50 (Vero) | selectivity ratio [15] | selectivity ratio [16] | selectivity ratio [17] | pKi [18] |
| --- | --- | --- | --- | --- | --- | --- | --- | --- | --- | --- | --- | --- | --- | --- | --- | --- | --- | --- | --- |
| CC1(C)N=C(N)N=C(N)N1OCCCOc1ccc(Cl)cc1 | 9.22 | 8.92 | 9.05 | 9.05 | 9.00 | 9.55 | 9.62 | 8.72 | 8.68 | 8.41 | 7.64 | 49 | 32 | 29 | 6.77 | 607 | 89 | 7 | – |
| Cc1ccc(C)c(NCCCON2C(N)=NC(N)=NC2(C)C)c1 | 9.10 | 8.39 | 8.96 | 8.82 | 8.42 | 7.59 | – | 7.00 | 7.37 | 6.51 | 6.46 | 155 | 113 | 33 | < 4.30 | > 1920 | > 500 | > 143 | 8.85 |
| CC1N=C(N)N=C(N)N1OCCCOc1ccc(Cl)cc1 (configuration not stated) | 9.40 | 8.72 | 9.15 | 8.85 | 8.74 | 7.52 | – | 7.54 | 6.92 | 6.42 | 6.09 | 290 | 166 | 64 | < 4.30 | > 1670 | > 1720 | > 61 | 9.05 |
| CC1(C)N=C(N)N=C(N)N1OCCCOc1ccc(F)cc1Cl | 9.40 | 8.74 | 9.05 | 9.05 | 8.92 | 10.47 | 9.55 | 9.59 | 9.62 | 8.51 | 8.52 | 94 | 42 | 31 | 4.67 | 629000 | 82300 | 7130 | – |
| CC1N=C(N)N=C(N)N1OCCCOc1ccc(F)cc1Cl (configuration not stated) | 9.40 | 8.74 | 9.15 | 8.80 | 8.89 | 7.64 | – | 8.28 | 7.48 | 7.33 | 6.54 | 229 | 131 | 70 | < 4.30 | > 2170 | > 9620 | > 172 | 9.10 |
| CC1N=C(N)N=C(N)N1OCCCOc1cccc(Cl)c1Cl (configuration not stated) | 9.40 | 8.74 | 9.22 | 8.92 | 8.92 | 8.89 | – | 8.23 | 6.82 | 7.21 | 6.68 | 49 | 33 | 16 | 5.23 | 4550 | 1000 | 28 | 9.22 |
| CN(CCCON1C(N)=NC(N)=NC1(C)C)c1ccc(Cl)cc1 | 8.82 | 8.47 | 8.85 | 8.70 | 8.47 | 8.77 | 8.49 | 7.31 | 7.62 | 6.77 | 6.38 | 22 | 24 | 10 | 4.35 | 26500 | 918 | 107 | – |
| CC1(C)N=C(N)N=C(N)N1OCCCSc1cccc(Cl)c1 | 9.15 | 8.47 | 9.10 | 9.05 | 9.00 | 8.89 | 8.62 | 8.26 | 8.09 | 7.38 | 7.11 | 34 | 30 | 24 | 5.41 | 3000 | 709 | 51 | – |
| CC1(C)N=C(N)N=C(N)N1OCCCc1ccccc1 | 8.96 | 8.51 | 8.89 | 8.55 | 8.30 | 8.04 | – | 7.66 | 7.41 | 6.60 | 7.05 | 36 | 30 | 8 | 5.15 | 772 | 323 | 79 | 8.92 |
| CC1(C)N=C(N)N=C(N)N1OCCSc1ccc(Cl)cc1 | 9.52 | 8.82 | 9.10 | 8.74 | 8.52 | 8.46 | – | 7.43 | 7.62 | 7.49 | 6.27 | 84 | 32 | 8 | 4.85 | 4000 | 378 | 26 | 9.10 |
| CCN(CC)CCCON1C(N)=NC(N)=NC1(C)C | 9.00 | 8.01 | 8.77 | 8.26 | 8.10 | 7.62 | – | 7.49 | 7.15 | 6.85 | 6.10 | 230 | 135 | 29 | < 4.30 | > 2080 | > 1560 | > 63 | 8.68 |
| CN(CCCON1C(N)=NC(N)=NC1(C)C)c1ccc(Cl)c(Cl)c1 | 8.89 | 8.40 | 9.00 | 8.64 | 8.41 | 9.28 | – | 7.49 | 7.55 | 6.85 | 6.54 | 30 | 39 | 10 | 4.48 | 64000 | 1040 | 115 | 8.82 |
| CC1(C)NC(N)=NC(=N)N1OCCCCOc1ccccc1 | 9.10 | 8.49 | 8.89 | 8.77 | 8.70 | 8.54 | – | 7.48 | 7.34 | 6.66 | 6.66 | 57 | 35 | 23 | 5.01 | 3380 | 297 | 45 | 8.80 |
| CC1(C)NC(N)=NC(=N)N1OCCc1ccccc1 | 8.96 | 8.15 | 8.70 | 7.92 | 7.77 | 7.52 | – | 7.41 | 6.62 | 6.52 | 6.14 | 39 | 21 | 3 | 4.92 | 400 | 308 | 17 | 8.54 |
